We go through seven compounds from PubChem BioAssay (NCI).

Among the test systems are COLO 205 colon; SK-MEL-2 melanoma; MDA-N; TK-10 renal; HCT-116 colon; CAKI-1 renal; NCI-H460 lung; HL-60(TB) leukemia; RPMI-8226 leukemia; HT29 colon; NCI-H226 lung; SF-539 CNS; MDA-MB-435; UACC-257 melanoma; OVCAR-3 ovarian; BT-549 breast; NCI/ADR-RES ovarian; HCT-15 colon; DU-145 prostate; KM12 colon.
What all share (assay): inhibition of tumour cell growth, NCI panel, 48 h

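Method: 48-hour compound exposure of cells in 96-well plates, five concentrations, linear interpolation of endpoints. TGI: concentration producing complete growth inhibition.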

In the case of `C=C1C(=O)C23CC1C[C@H](OC(C)=O)[C@H]2C1(C)C(OC(C)=O)C[C@H](O)C(C)(C)[C@H]1C(=O)[C@@H]3OC(C)=O` (stereo not given in full), the TGI was determined as 4.8 µM in the assay on COLO 205 colon; 25.9 µM in the assay with SK-MEL-2 melanoma; 10.7 µM with MDA-N; 5.82 µM in the assay with TK-10 renal; 6.16 µM in the assay with HCT-116 colon; 8.17 µM with CAKI-1 renal. Also, the TGI amounted to 33.4 µM with NCI-H460 lung; 4.47 µM with HL-60(TB) leukemia; 4.81 µM in the assay on RPMI-8226 leukemia; 17 µM in the assay on HT29 colon; 43.3 µM in the assay with NCI-H226 lung; 6.47 µM in the assay with SF-539 CNS. Further, the TGI with MDA-MB-435 is 11.4 µM; in the assay on UACC-257 melanoma, 11 µM; in the assay on OVCAR-3 ovarian it was 12.7 µM; in the assay on BT-549 breast it was 7.4 µM; in the assay on NCI/ADR-RES ovarian it was 35.6 µM; with HCT-15 colon, 11 µM. The figures for the TGI with DU-145 prostate and in the assay on KM12 colon were 25.7 µM and 23.8 µM, respectively.
Take `COc1ccc2nc3c([N+](=O)[O-])ccc4c3c(c2c1)N=CN4CCCN(C)C`: the TGI worked out at 5.77 µM in the assay with COLO 205 colon; 22.8 µM with SK-MEL-2 melanoma; 21.8 µM with MDA-N; 6.51 µM with TK-10 renal; 14.1 µM with HCT-116 colon; 7.26 µM in the assay on CAKI-1 renal. The TGI in the assay on NCI-H460 lung came out at 16.3 µM; in the assay with HL-60(TB) leukemia, 6.27 µM; in the assay on RPMI-8226 leukemia, 0.772 µM; in the assay with HT29 colon, 12.5 µM; in the assay with NCI-H226 lung, 24.9 µM; with SF-539 CNS, 13 µM. The TGI in the assay with MDA-MB-435 was 20.1 µM; in the assay with UACC-257 melanoma it was 17.2 µM; in the assay on OVCAR-3 ovarian, 20.2 µM; with BT-549 breast it was 23.5 µM; in the assay on NCI/ADR-RES ovarian, 18 µM; in the assay with HCT-15 colon it was 15.2 µM. Further, the TGI in the assay on DU-145 prostate is 13.9 µM; with KM12 colon it was 13 µM.
With `O=C(N/N=C/c1ccc2c(c1)OCO2)Nc1ccccc1Cl`, the TGI in the assay on COLO 205 colon was 5.52 µM; with SK-MEL-2 melanoma, 25.2 µM; with MDA-N it was 0.501 µM; with TK-10 renal, 21 µM; in the assay on HCT-116 colon, more than 100 µM; with CAKI-1 renal, more than 100 µM. Further, the TGI was 16.6 µM in the assay on NCI-H460 lung; more than 23.1 µM with HL-60(TB) leukemia; more than 56.2 µM in the assay on RPMI-8226 leukemia; more than 49.1 µM in the assay on HT29 colon; more than 73.5 µM in the assay on NCI-H226 lung; 24.8 µM with SF-539 CNS. Besides, the TGI in the assay on MDA-MB-435 is 1.33 µM; in the assay on UACC-257 melanoma it was more than 100 µM; in the assay on OVCAR-3 ovarian it was 2.82 µM; in the assay on BT-549 breast, 75.7 µM; in the assay with NCI/ADR-RES ovarian it was 2.4 µM; in the assay on HCT-15 colon, more than 100 µM. The TGI with DU-145 prostate is more than 20.3 µM; with KM12 colon, more than 100 µM.
For the compound `O=C1C(=O)c2c(oc(=O)c3ccccc23)-c2ccccc21`, the TGI in the assay on COLO 205 colon, with SK-MEL-2 melanoma, in the assay with MDA-N, in the assay on TK-10 renal, in the assay with HCT-116 colon and with CAKI-1 renal was more than 25 µM each time. The TGI with NCI-H460 lung was more than 25 µM; in the assay with HL-60(TB) leukemia it was 15 µM; with RPMI-8226 leukemia it was more than 25 µM; in the assay with HT29 colon, more than 25 µM; in the assay with NCI-H226 lung it was more than 25 µM; with SF-539 CNS it was more than 25 µM. Besides, the TGI with MDA-MB-435 was 20.9 µM; with UACC-257 melanoma it was more than 25 µM; in the assay with OVCAR-3 ovarian, more than 25 µM; in the assay with BT-549 breast, more than 25 µM; with NCI/ADR-RES ovarian it was more than 25 µM; with HCT-15 colon, more than 25 µM. Moreover, the TGI with DU-145 prostate and in the assay on KM12 colon was more than 25 µM in each case.
With `C=C(Cl)c1c(OC)cccc1OCc1ccccc1`, the TGI in the assay with COLO 205 colon, in the assay on SK-MEL-2 melanoma, with MDA-N, in the assay with TK-10 renal, in the assay on HCT-116 colon and in the assay with CAKI-1 renal was more than 100 µM in each case. The TGI in the assay with NCI-H460 lung, in the assay with HL-60(TB) leukemia, with RPMI-8226 leukemia, with HT29 colon, with NCI-H226 lung and with SF-539 CNS was more than 100 µM throughout. Also, the TGI with MDA-MB-435 was more than 100 µM; in the assay on UACC-257 melanoma, 40.6 µM; with OVCAR-3 ovarian it was more than 100 µM; in the assay with BT-549 breast, more than 100 µM; with NCI/ADR-RES ovarian, more than 100 µM; in the assay with HCT-15 colon it was more than 100 µM. Also, the TGI in the assay with DU-145 prostate and in the assay on KM12 colon was more than 100 µM throughout.
For the compound `COc1ccc(/C=C2\CCC(CNc3cc(C)on3)C2=O)cc1` (stereo not given), the TGI in the assay with COLO 205 colon, in the assay with SK-MEL-2 melanoma, in the assay with MDA-N, in the assay with TK-10 renal, in the assay on HCT-116 colon and with CAKI-1 renal was more than 100 µM in each case. The TGI with NCI-H460 lung was more than 100 µM; in the assay with HL-60(TB) leukemia, more than 21.5 µM; in the assay on RPMI-8226 leukemia it was more than 100 µM; in the assay on HT29 colon it was more than 100 µM; with NCI-H226 lung it was more than 100 µM; in the assay with SF-539 CNS, more than 100 µM. The TGI with MDA-MB-435, in the assay with UACC-257 melanoma, with OVCAR-3 ovarian, in the assay with BT-549 breast, in the assay on NCI/ADR-RES ovarian and in the assay with HCT-15 colon was more than 100 µM in each case. The TGI in the assay on DU-145 prostate and in the assay on KM12 colon was more than 100 µM each time.
Regarding `COc1cc(/C=C(\C#N)c2nc3ccccc3o2)ccc1O`, the TGI with COLO 205 colon was 33 µM; with SK-MEL-2 melanoma, 47.3 µM; in the assay with MDA-N it was more than 100 µM; in the assay on TK-10 renal, 75 µM; in the assay with HCT-116 colon, 34.3 µM; in the assay with CAKI-1 renal, 45.9 µM. Besides, the TGI in the assay on NCI-H460 lung was 48.4 µM; in the assay with HL-60(TB) leukemia, 55.3 µM; in the assay on RPMI-8226 leukemia, 63.6 µM; in the assay with HT29 colon, 48.1 µM; in the assay with NCI-H226 lung it was 49 µM; in the assay on SF-539 CNS it was 28.5 µM. Further, the TGI in the assay on MDA-MB-435 is 41.6 µM; with UACC-257 melanoma, more than 100 µM; with OVCAR-3 ovarian, 40.9 µM; in the assay on BT-549 breast it was 34.5 µM; in the assay with NCI/ADR-RES ovarian it was 64.3 µM; with HCT-15 colon it was 42.6 µM. Further, the results for the TGI in the assay on DU-145 prostate and with KM12 colon were 65.1 µM and 37.7 µM, respectively.
